Reference: US20250049036A1 (priority 2021, published 2025)

Experiments:
Pyricularia oryzae = test: microbe, parasite or virus in culture; assay type: cell-based; settings: 168 h, read-out: control compared to the untreated check
Parastagonospora nodorum = Parastagonospora nodorum (PARANO) spore growth inhibition in liquid medium, 96-well microtiter plate, OD 600; assay type: cell-based; settings: spore suspension in PDB liquid medium, 18° C., 5-6 days, OD at 600, read-out: control compared to the untreated check
In short: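 Read-out is percent growth inhibition from OD at 600 after 5-6 days at 18° C. Compounds, dissolved in DMSO, were diluted in potato dextrose broth and combined in equal volume with a 10^5 spores/ml suspension of PARANO.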

Phytophthora infestans [1] = test: whole plant or invertebrate; assay type: in vivo, Phytophthora infestans on tomato; settings: in Solanum lycopersicum, read-out: control (efficacy, disease severity) compared to the untreated check
Phakopsora pachyrhizi = Phakopsora pachyrhizi test on soybean, preventive, greenhouse; assay type: in vivo; settings: preventive spray on soybean, inoculated one day after treatment, read-out: control (efficacy, disease severity) compared to the untreated check
In short: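 Preventive protocol: plants inoculated with a 2×10^5 P. pachyrhizi conidial suspension one day after spray application at the stated rate, then incubated at 22-24 °C and 80-90% RH. Compound was applied from 2% DMSO/acetone diluted in emulsified water.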

Botrytis cinerea [2] = test: Botrytis cinerea (gray mold) mycelial radial growth on potato dextrose agar; assay type: cell-based; settings: 168 h, 22° C., seven days, read-out: control compared to the untreated check
Description: The compounds were dissolved in 0.3% dimethyl sulfoxide and then added to potato dextrose agar medium just prior to dispensing it into petri dishes. 5 mL medium, with the compound in the desired concentration, was dispensed into 60 mm sterile petri-plates. After solidification, each plate was seeded with a 5 mm size mycelial disc taken from the periphery of an actively growing virulent culture plate. The plates were incubated in growth chambers at 22° C. temperature and 90% relative humidity for seven days and the radial growth was measured and compared to the one of the untreated control.

Colletotrichum capsici = Colletotrichum capsici (anthracnose) mycelial radial growth on potato dextrose agar; assay type: cell-based; settings: Colletotrichum truncatum, 168 h, 25° C., seven days, read-out: control compared to the untreated check
In short: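 Compounds in 0.3% DMSO were mixed into potato dextrose agar, and each plate was seeded with a 5 mm mycelial disc from an actively growing culture. Plates were incubated at 25° C and 60% relative humidity for seven days. Radial growth was compared with untreated control.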

Venturia Inequalis = test: Venturia inequalis (VENTIN) spore growth inhibition in liquid medium, 96-well microtiter plate, OD 600; assay type: cell-based; settings: spore suspension in PDB liquid medium, 18° C., 15-18 days, OD at 600, read-out: control compared to the untreated check
Description: Potato dextrose (PDB) liquid medium containing a VENTIN (10^5 spores/ml) spore suspension was prepared. For the inhibition assay, each test compound was solved in dimethyl sulfoxide. 100 μl of the test compound in media-solution was added to a 96-well microtiter plate, consequently, the same volume (100 μl) of spore suspension was added to the well making the final test concentrations and the treated plate was incubated at 18° C. for 15-18 days. The growth inhibition was evaluated by measuring the OD at 600. Percent inhibition was calculated with the below formula: […]

Phytophthora infestans [3] = test: microbe, parasite or virus in culture; assay type: cell-based; settings: 168 h, read-out: control compared to the untreated check
Botrytis cinerea [4] = test: Botrytis cinerea test on tomato, preventive, greenhouse; assay type: in vivo; settings: preventive spray on bean/chili plants (heading: tomato), inoculated one day after treatment, read-out: control (efficacy, disease severity) compared to the untreated check
Alternaria solani = Alternaria solani (early blight of tomato/potato) mycelial radial growth on potato dextrose agar; assay type: cell-based; settings: 168 h, 25° C., seven days, read-out: control compared to the untreated check
Description: The compounds were dissolved in 0.3% dimethyl sulfoxide and then added to potato dextrose agar medium just prior to dispensing it into petri dishes. 5 mL medium, with the compound in the desired concentration, was dispensed into 60 mm sterile petri-plates. After solidification, each plate was seeded with a 5 mm size mycelial disc taken from the periphery of an actively growing virulent culture plate. The plates were incubated in growth chambers at 25° C. temperature and 60% relative humidity for seven days and the radial growth was measured and compared to the one of the untreated control.

Botrytis cinerea [5] = test: Botrytis cinerea liq. (BOTRCI) spore growth inhibition in liquid medium, 96-well microtiter plate, OD 405 nm; assay type: cell-based; settings: spore suspension in YBA liquid medium, 22° C., 5-6 days, OD at 405 nm, read-out: control compared to the untreated check
In short: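 Spore suspension of B. cinerea (10^4 spores/ml) in YBA liquid medium mixed 1:1 with compound diluted from DMSO. Incubated at 22° C. for 5-6 days. Growth read as OD 405 nm; percent inhibition derived from treatment, untreated-control and blank readings.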

Cn1ccc2cc(C(=O)NC(C)(C)Cc3cccc(Br)c3)cnc21 [Compound 48, N-(1-(3-bromophenyl)-2-methylpropan-2-yl)-1-methyl-1H-pyrrolo[2,3-b]pyridine-5-carboxamide]
≥ 70%: inhibition of growth at 300 ppm (Pyricularia oryzae) | inhibition of growth at 300 ppm (Parastagonospora nodorum) | pest or weed control at 500 ppm (Phytophthora infestans [1]) | pest or weed control at 500 ppm (Phakopsora pachyrhizi)

Cn1ccc2cc(C(=O)NC(C)(C)Cc3ccc(Cl)c(F)c3)cnc21 [Compound 42, N-(1-(4-chloro-3-fluorophenyl)-2-methylpropan-2-yl)-1-methyl-1H-pyrrolo[2,3-b]pyridine-5-carboxamide]
≥ 70%: inhibition of growth at 300 ppm (Pyricularia oryzae) | inhibition of growth at 300 ppm (Parastagonospora nodorum) | pest or weed control at 500 ppm (Phytophthora infestans [1]) | pest or weed control at 500 ppm (Phakopsora pachyrhizi)

C=C(C)CC(C)(COc1ccccc1F)NC(=O)c1cnc2c(c1)CCC2 (stereo not shown) [Compound 160, N-(1-(2-fluorophenoxy)-2,4-dimethylpent-4-en-2-yl)-6,7-dihydro-5H-cyclopenta[b]pyridine-3-carboxamide]
≥ 70%: inhibition of growth at 300 ppm (Botrytis cinerea [2]) | inhibition of growth at 300 ppm (Colletotrichum capsici) | inhibition of growth at 300 ppm (Parastagonospora nodorum) | inhibition of growth at 300 ppm (Venturia Inequalis)

Cc1nc2c(ccn2C)cc1C(=O)NC(C)(C)C(C)c1ccccc1Cl (stereo not shown) [Compound 40, N-(3-(2-chlorophenyl)-2-methylbutan-2-yl)-1,6-dimethyl-1H-pyrrolo[2,3-b]pyridine-5-carboxamide]
≥ 70%: inhibition of growth at 300 ppm (Pyricularia oryzae) | inhibition of growth at 300 ppm (Botrytis cinerea [2]) | inhibition of growth at 300 ppm (Parastagonospora nodorum) | pest or weed control at 500 ppm (Phytophthora infestans [1]) | pest or weed control at 500 ppm (Phakopsora pachyrhizi)

Cn1cc(F)c2cc(C(=O)NC(C)(C)Cc3ccc(Cl)c(F)c3)cnc21 [Compound 69, N-(1-(4-chloro-3-fluorophenyl)-2-methylpropan-2-yl)-3-fluoro-1-methyl-1H-pyrrolo[2,3-b]pyridine-5-carboxamide]
≥ 70%: inhibition of growth at 300 ppm (Pyricularia oryzae) | inhibition of growth at 300 ppm (Venturia Inequalis) | pest or weed control at 500 ppm (Phytophthora infestans [1])

CC(C)(COC(=O)c1cccc(F)c1)NC(=O)c1cnc2c(c1)CCC2 [Compound 145, 2-(6,7-dihydro-5H-cyclopenta[b]pyridine-3-carboxamido)-2-methylpropyl 3-fluorobenzoate]
≥ 70%: pest or weed control at 500 ppm (Phytophthora infestans [1])

CC(C)(Cc1ccc(F)cc1)NC(=O)c1cnc2[nH]ccc2c1 [Compound 41, N-(1-(4-fluorophenyl)-2-methylpropan-2-yl)-1H-pyrrolo[2,3-b] pyridine-5-carboxamide]
≥ 70%: inhibition of growth at 300 ppm (Phytophthora infestans [3]) | inhibition of growth at 300 ppm (Venturia Inequalis) | pest or weed control at 500 ppm (Botrytis cinerea [4]) | pest or weed control at 500 ppm (Phytophthora infestans [1]) | pest or weed control at 500 ppm (Phakopsora pachyrhizi)

Cn1ccc2cc(C(=O)NC(C)(C)C(C)(C)c3ccccc3)cnc21 [Compound 5, N-(2,3-dimethyl-3-phenylbutan-2-yl)-1-methyl-1H-pyrrolo[2,3-b]pyridine-5-carboxamide]
≥ 70%: inhibition of growth at 300 ppm (Alternaria solani) | inhibition of growth at 300 ppm (Parastagonospora nodorum) | pest or weed control at 500 ppm (Phakopsora pachyrhizi)

Cn1ccc2cc(C(=O)NCC3(c4ccccc4)CC3)cnc21 [Compound 79, 1-methyl-N-((1-phenylcyclopropyl)methyl)-1H-pyrrolo [2,3-b]pyridine-5-carboxamide]
≥ 70%: inhibition of growth at 300 ppm (Pyricularia oryzae) | inhibition of growth at 300 ppm (Phytophthora infestans [3]) | inhibition of growth at 300 ppm (Parastagonospora nodorum) | inhibition of growth at 300 ppm (Venturia Inequalis) | pest or weed control at 500 ppm (Phytophthora infestans [1])

Cn1cc(F)c2cc(C(=O)NC(C)(C)Cc3ccccc3F)cnc21 [Compound 68, 3-fluoro-N-(1-(2-fluorophenyl)-2-methylpropan-2-yl)-1-methyl-1H-pyrrolo[2,3-b]pyridine-5-carboxamide]
≥ 70%: inhibition of growth at 300 ppm (Venturia Inequalis) | pest or weed control at 500 ppm (Phytophthora infestans [1]) | pest or weed control at 500 ppm (Phakopsora pachyrhizi)

Cn1cc(Cl)c2cc(C(=O)NC(C)(C)Cc3ccccc3)cnc21 [Compound 53, 3-chloro-1-methyl-N-(2-methyl-1-phenylpropan-2-yl)-1H-pyrrolo[2,3-b] pyridine-5-carboxamide]
≥ 70%: inhibition of growth at 300 ppm (Pyricularia oryzae) | inhibition of growth at 300 ppm (Venturia Inequalis) | pest or weed control at 500 ppm (Phytophthora infestans [1]) | pest or weed control at 500 ppm (Phakopsora pachyrhizi)

Cn1cc(Cl)c2cc(C(=O)NC(C)(C)Cc3ccccc3Cl)cnc21 [Compound 83, 3-chloro-N-(1-(2-chlorophenyl)-2-methylpropan-2-yl)-1-methyl-1H-pyrrolo[2,3-b]pyridine-5-carboxamide]
≥ 70%: inhibition of growth at 300 ppm (Pyricularia oryzae) | inhibition of growth at 300 ppm (Venturia Inequalis) | pest or weed control at 500 ppm (Botrytis cinerea [4]) | pest or weed control at 500 ppm (Phytophthora infestans [1]) | pest or weed control at 500 ppm (Phakopsora pachyrhizi)

Cc1nc2c(ccn2C)cc1C(=O)NC(C)(C)Cc1ccccc1F [Compound 38, N-(1-(2-fluorophenyl)-2-methylpropan-2-yl)-1,6-dimethyl-1H-pyrrolo[2,3-b]pyridine-5-carboxamide]
≥ 70%: inhibition of growth at 300 ppm (Pyricularia oryzae) | pest or weed control at 500 ppm (Botrytis cinerea [4]) | pest or weed control at 500 ppm (Phytophthora infestans [1]) | pest or weed control at 500 ppm (Phakopsora pachyrhizi)

CC(c1ccccc1Cl)C(C)(C)NC(=O)c1cnc2c(c1)c(F)cn2C (stereo not shown) [Compound 71, N-(3-(2-chlorophenyl)-2-methylbutan-2-yl)-3-fluoro-1-methyl-1H-pyrrolo[2,3-b]pyridine-5-carboxamide]
≥ 70%: inhibition of growth at 300 ppm (Pyricularia oryzae) | pest or weed control at 500 ppm (Phytophthora infestans [1]) | pest or weed control at 500 ppm (Phakopsora pachyrhizi)

CC(CCc1ccccc1)NC(=O)c1cnc2c(ccn2C)c1 (stereo not shown) [Compound 75, 1-methyl-N-(4-phenylbutan-2-yl)-1H-pyrrolo[2,3-b]pyridine-5-carboxamide]
≥ 70%: inhibition of growth at 300 ppm (Botrytis cinerea [2]) | inhibition of growth at 300 ppm (Colletotrichum capsici) | inhibition of growth at 300 ppm (Parastagonospora nodorum) | inhibition of growth at 300 ppm (Venturia Inequalis) | inhibition of growth at 300 ppm (Botrytis cinerea [5]) | pest or weed control at 500 ppm (Botrytis cinerea [4]) | pest or weed control at 500 ppm (Phytophthora infestans [1]) | pest or weed control at 500 ppm (Phakopsora pachyrhizi)

CC(C)CC(C)(Cc1ccccc1)NC(=O)c1cnc2c(c1)c(Cl)cn2C (stereo not shown) [Compound 52, 3-chloro-N-(2,4-dimethyl-1-phenylpentan-2-yl)-1-methyl-1H-pyrrolo[2,3-b]pyridine-5-carboxamide]
≥ 70%: inhibition of growth at 300 ppm (Venturia Inequalis) | pest or weed control at 500 ppm (Phytophthora infestans [1]) | pest or weed control at 500 ppm (Phakopsora pachyrhizi)

Cn1ccc2cc(C(=O)NC3(Cc4ccccc4)CC3)cnc21 [Compound 39, N-(1-benzylcyclopropyl)-1-methyl-1H-pyrrolo[2,3-b]pyridine-5-carboxamide]
≥ 70%: inhibition of growth at 300 ppm (Pyricularia oryzae) | inhibition of growth at 300 ppm (Colletotrichum capsici) | inhibition of growth at 300 ppm (Phytophthora infestans [3]) | inhibition of growth at 300 ppm (Venturia Inequalis) | pest or weed control at 500 ppm (Phytophthora infestans [1]) | pest or weed control at 500 ppm (Phakopsora pachyrhizi)
